The results in this text go back to PubChem BioAssay (NCI).

Molecules are shown by their SMILES.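 How tested: cells in 96-well plates exposed to compound for 48 hours at five concentrations. Abbreviation: GI50, concentration required for 50% inhibition of growth. The concentration for full growth arrest is given as TGI.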 Where only a bound is given, the exact number is not on record here.

Test in all cases: NCI tumour cell line growth inhibition, 48 h
In experiment [1] the test system is UO-31 renal.
Experiment [2] deals with DMS 114 small cell lung.
Experiment [3] has as its system SK-OV-3 ovarian.
Experiment [4] concerns SNB-19 CNS.
In experiment [5] the test system is LXFL 529 NSCLC.
For experiment [6], the system named is OVCAR-5 ovarian.
The test system of experiment [7] is MDA-MB-231 breast.
Experiment [8] deals with MCF7 breast.
Experiment [9] concerns T-47D breast.
Experiment [10] deals with MALME-3M melanoma.

With `CCOC(=O)C1=C(C)N(Cc2ccccc2)C(=O)C1CC#N` (centres undefined), the TGI in experiment [1], in experiment [2], in [3], in experiment [4] and in experiment [5] was more than 100 µM in each case.

In the case of `O=C(O)C1C2C=CC(C2)C1C(=O)O` (centres undefined), the GI50 in experiment [1], in experiment [6], in experiment [7], in experiment [8], in experiment [3] and in [9] was more than 100 µM throughout. Also, the GI50 in [10] and in experiment [4] was more than 100 µM in each case. Moreover, the TGI in experiment [1], in experiment [6], in experiment [7], in [8], in [3] and in [9] was more than 100 µM each time. For the same molecule, the TGI in experiment [10] and in [4] was more than 100 µM throughout.

As for `O=C(c1ccco1)c1c(C(F)(F)F)nc2ccc(C(F)(F)F)cc2[n+]1[O-]`, the GI50 in experiment [1] is 38.7 µM; in [6], 46.9 µM; in experiment [7], 23.7 µM; in experiment [8], 33.6 µM; in experiment [3], 35 µM; in experiment [9], 36.3 µM. Also, the GI50 was 20.8 µM in experiment [10] and 27.5 µM in [4]. Also, the TGI in [1] is more than 100 µM; in experiment [6], more than 100 µM; in experiment [7] it was 65.4 µM; in experiment [8], more than 100 µM; in [3] it was more than 100 µM; in experiment [9], more than 87.5 µM. The figures for the TGI in experiment [10] and in experiment [4] were 47.7 µM and more than 79.7 µM, respectively.

With `CC(=O)[CH-]C(=O)c1ccccc1.CC(=O)[CH-]C(=O)c1ccccc1.CC[C@H](/C=C/C(C)[C@H]1CCC2[C@@H]3CC=C4C[C@@H]([O-])CC[C@]4(C)C3CC[C@@]21C)C(C)C.CC[O-].[Ti+4]` (some centres undefined), the GI50 in experiment [1], in experiment [6], in [3], in experiment [10], in experiment [4] and in [5] was more than 100 µM in each case. For the same molecule, the TGI in experiment [1], in [6], in experiment [3], in experiment [10], in experiment [4] and in [5] was more than 100 µM in each case.

Turning to `O=C1CCCCC=C1C[N+](=O)[O-]`, the GI50 is 38.2 µM in [1]; 21.9 µM in [6]; 22.2 µM in experiment [7]; 20 µM in experiment [8]; more than 100 µM in experiment [3]; 26.6 µM in [9]. Moreover, the GI50 is 30.3 µM in experiment [10] and 42.1 µM in [4]. Besides, the TGI was more than 100 µM in experiment [1]; 41.6 µM in [6]; 49.4 µM in experiment [7]; 55.1 µM in [8]; more than 100 µM in experiment [3]; 88.1 µM in experiment [9]. Also, the TGI in experiment [10] was 53.5 µM; in [4] it was more than 100 µM.

For `CCN(Cc1ccccc1Cl)c1ccc(CO)c(Cl)c1`, the GI50 in experiment [1] is 9.15 µM; in experiment [6], 0.206 µM; in [7], 13.1 µM; in [8], 0.442 µM; in [3], 8.82 µM; in experiment [9], 0.06 µM. Further, the results for the GI50 in experiment [10] and in experiment [4] were 13.6 µM and 13.2 µM, respectively. In addition, the TGI in experiment [1] is 24.9 µM; in experiment [6], 0.789 µM; in experiment [7], 26.2 µM; in experiment [8], 12.1 µM; in experiment [3] it was 21.2 µM; in experiment [9] it was 0.522 µM. In addition, the TGI in experiment [10] amounted to 28.1 µM; in [4], 26.3 µM.

Consider `O=S1(=O)NC2CCC3NS(=O)(=O)NC4CCC(N1)N4S(=O)(=O)N23` (centres undefined), for which the TGI in [1], in [6], in experiment [7], in experiment [8], in experiment [3] and in experiment [9] was more than 100 µM throughout. In addition, the TGI in [10] and in experiment [4] was more than 100 µM in each case.

Regarding `CCOC(=O)c1ccc2c(c1)nc(/C=C/c1ccc(Cl)cc1)n2-c1cc(C(C)(C)C)[nH]n1`, the GI50 was 2.71 µM in experiment [1]; 18.5 µM in experiment [6]; 2.37 µM in experiment [7]; 2.71 µM in experiment [8]; 4.28 µM in experiment [3]; 5.82 µM in experiment [9]. For the same molecule, the figures for the GI50 in experiment [10] and in experiment [4] were 2.8 µM and 5.93 µM, respectively. In addition, the TGI was 25.3 µM in experiment [1]; more than 100 µM in experiment [6]; 7.57 µM in experiment [7]; 10.2 µM in experiment [8]; 14.8 µM in experiment [3]; 52.4 µM in experiment [9]. The TGI in experiment [10] is 18.5 µM; in experiment [4], more than 100 µM.

On to `CC(=O)OC12c3ccccc3-c3ccccc3C1C(C(=O)O)C2(Cl)C(=O)O` (centres undefined), for which the TGI in experiment [1], in experiment [6], in [7], in experiment [8], in experiment [3] and in [9] was more than 10 µM in each case. In addition, the TGI in [10] and in experiment [4] was more than 10 µM each time.

Regarding `O=[N+]([O-])c1ccc(Sc2nc(Cl)nc(NC3CCCC3)n2)cc1`, the GI50 in [1] was 3.08 µM; in experiment [6], more than 10 µM; in experiment [7] it was more than 10 µM; in [8] it was more than 10 µM; in [3], more than 10 µM; in [9], more than 10 µM. Moreover, the GI50 in experiment [10] and in [4] was more than 10 µM throughout. For the same molecule, the TGI in [1], in experiment [6], in experiment [7], in [8], in [3] and in experiment [9] was more than 10 µM each time. The TGI in experiment [10] and in experiment [4] was more than 10 µM throughout.
